Holding throughout (assay type): binding
For data set [1], the system named is intact ZIKV particles. Nature of the data set: Direct ELISA vs intact ZIKV particles. The note with it: for LOD: LOD=SB+3×SDB, interpolated from calibration curve; for FPLR maximum / FPLR minimum: delta absorbance 450 nm; for Long-term stability: dose-response performance of the assay; for FPLR C50 / FPLR slope: four-parameter logistic fit; for FPLR Dynamic Range: optimized peptide concentration of Table 5 (0.5-20 μM; 4G2 1 μg/ml); for dynamic range of dose-response curve (orders of magnitude): in words. The protocol:
Before biotin functionalization, peptides stock solution was reduced using trialkylphosphine (TCEP) from ThermoFisher Scientific (www.thermofisher.com) and after 1 h the gel was removed using TCEP gel spin separation columns (ThermoFisher Scientific). Then, 2-fold molar excess of EZ-Link™ Maleimide-PEG2-Biotin (ThermoFisher Scientific) was added to purified peptide solution and incubated for 1 h. […] Therefore, no further separation was carried out.
(§1) To optimize all parameters of the direct ELISA protocol, Pierce 96-Well Polystyrene Plates, (ThermoFisher Scientific) were coated overnight at 4° C. with different concentrations of intact virus particles (ZIKV or DENV). The intact virus particles were diluted using 100 mM NaHCO3, pH 9.6, and aliquots of 100 μL were dispensed into each well of the plate using a multichannel pipette. This buffer pH assured a strong hydrophobic binding interaction between polystyrene and virus particles.
(§2) Intact particles both ZIKV and DENV were provided by Dr. Watkins group (University of Miami, Dep. of Pathology). The samples were controlled and counted by focus forming assay and RT-PCR, the details were reported in a previous work (Magnani et al., 2017). The Intact particles of ZIKV were inactivated using gamma irradiation. Assay biohazardous steps were carried out according to standard safety procedures.
(§3) After coating the plates overnight, the intact virus particles were removed by washing five times with the washing buffer (PBST) 10 mM PBS pH 7.4, 0.1% Tween-20, using an automated plate washer (MultiWash+, Molecular Devices, Sunnyvale, Calif.). Then, the plates were blocked with 200 μL of blocking buffers while shaking at 300 rpm at room temperature. The blocking buffers used were: Pierce™ Protein-Free (PBS) Blocking Buffer (PF), Blocker™ BLOTTO in TBS, SuperBlock™ Blocking Buffer, Blocker™ BSA (1×) in PBS. All blocking buffer were from ThermoFisher Scientific.
(§4) After 2 h the blocking buffers were removed using the same washing procedure mentioned above. 100 μL-aliquots of several dilutions of peptides biotinylated in 10 mM PBS pH 7.4 were placed in each well and incubated for 2 h while shaking at 300 rpm at room temperature. After the incubation, the unreacted peptides were removed by using the plate washer with the same settings. Then, 100 μL-aliquots of streptavidin-HRP (ThermoFisher Scientific) at a concentration of 20 ng/mL were added into each well and incubated for 30 min at room temperature without shaking. After the incubation, excess streptavidin-HRP was removed and the wells were washed with the plate washer five times using the washing buffer. Finally, 100 μL-aliquots of the Ultra TMB-ELISA Substrate Solution (ThermoFisher Scientific) were added and after 10 min the reaction was stopped by adding 100 μL aliquots of the TMB stop solution (SeraCare). The emission (450 nm) was read using a microplate reader (Clariostar Optima; BMG Labtech, Ortenberg, Germany).
The corresponding blank signals in triplicates were obtained by using all reagents without peptides. The blank signal was then subtracted to the average absorbance values for triplicate wells of each test.
The eight clamp peptides and the four mono-arm peptides selected, were tested vs intact ZIKV particles by using a direct ELISA. The peptides were biotinylated by using the maleimide-PEG2-biotin reagent that reacts with the sulfhydryl group of the cysteine efficiently and specifically by forming a stable thioether bond. The antibody 4G2 hybridoma mouse IgG2a was used as the reference and employed in combination with an anti-mouse IgG conjugated to HRP.
All analytical parameters involved in the development of ELISA were optimized by using 96-well plates coated with triplicate 10-fold serial dilutions of intact ZIKV particles.
Thus, the peptide concentrations reported in Table 5 were used to estimate the dynamic range and the LOD of the assay by using 10-fold serial dilutions of intact ZIKV particles from 10^^1 to 10^^8 copies/mL. […]
For orientation: An ELISA detects its analyte on a solid surface through an enzyme-linked reagent.

Data set [2] relates to intact ZIKV particles. In words: Direct ELISA matrix effect in urine and serum. The following applies: urine 1:1, serum 1:10 diluted; 10^5 and 10^6 copies/mL ZIKV. The protocol: Usually, the presence of ZIKV in affected bodies is detected in biological fluids. Therefore, the analytical sensitivity of the selected peptides was tested in two biological matrices, namely, urine and serum. The matrix effect was investigated to understand how real biological fluids could modify the binding efficiency of the peptides.
FIG. 4 depicts the ELISA data using solutions of peptides with or without the urine and serum obtained coating clear 96-well plates with 10^^5 and 10^^6 copies/mL of intact ZIKV particles. Urine and serum were 1:1 and 1:10 diluted, respectively, with a concentrated peptide PBS solution (10 mM PBS, pH 7.4) to obtain a peptide final concentration of 0.5 μM for C3 and C6, 5 μM for C7 and 20 μM for mono-arm peptides (P2 and X1).

Data set [3] has as its system intact DENV particles (DENV-1, -2 and -3). In words: Cross-reactivity direct ELISA vs DENV serotypes. As for the experimental part: as §1, §2, §3, §4
The cross-reactivity among Flaviviruses is a key parameter to be tested for this assay. […]

“C-KTDAYS (CKTDAYS; X2) [mono-arm hexapeptide with N-terminal cysteine]”: in the data set with intact ZIKV particles [1], the LOD was 5.8 log[ZIKV], copies/mL; the FPLR maximum is on record as 0.91 ΔA; the FPLR minimum is listed as 0.01 ΔA; the Long-term stability is listed as greater than 1 Month. Besides, in the data set with intact ZIKV particles [1], the “FPLR C50” value is 6.1 log[ZIKV], copies/mL; the FPLR slope worked out at 27.7; the “FPLR Dynamic Range” value was 6-8 log[ZIKV], copies/mL.
Take “C6: clamp peptide AGRRP (20) - bridge GPGCCGPG (32) - LRGHA (25) (AGRRPGPGCCGPGLRGHA; C5 Binds to Active Site 2; Bridge peptide; C2 Binds to Active Site 1)”: the “ELISA performance in urine and serum” value in the data set on intact ZIKV particles [2] is “strong decrease in the signal”. For the same substance, the “signal decrease DENV vs ZIKV” value in data set [3] (DENV-2, 10^5 copies/mL coating) was found to be 45%. Moreover, the “signal decrease DENV vs ZIKV” value in data set [3] (DENV-3, 10^5 copies/mL coating) is 55%. In addition, in the data set on intact ZIKV particles [1], the LOD is 3.5 log[ZIKV], copies/mL; the FPLR maximum is on record as 0.53 ΔA; the FPLR minimum is on record as 0.05 ΔA; the Long-term stability is listed as greater than 1 Month. In the data set on intact ZIKV particles [1], the “FPLR C50” value was 5.2 log[ZIKV], copies/mL; the FPLR slope was determined as 10.1; the “dynamic range of dose-response curve (orders of magnitude)” value (shortened to “dynamic range of dose-response curve”) is on record as “three-order of magnitude”; the “FPLR Dynamic Range” value is 4-7 log[ZIKV], copies/mL.
In the case of “C-SWPGQ (CSWPGQ; P1) [mono-arm pentapeptide with N-terminal cysteine]”, in the data set with intact ZIKV particles [1], the LOD is 6.8 log[ZIKV], copies/mL; the Long-term stability was greater than 1 Month; the “dynamic range of dose-response curve” value is given as “one order of magnitude”; the “FPLR Dynamic Range” value was 7-8 log[ZIKV], copies/mL.
For the substance “C7: clamp peptide MDSPIK (22) - bridge GPGCCGPG (32) - KRNATP (26) (MDSPIKGPGCCGPGKRNATP; C7 Binds to Active Site 2; Bridge peptide; C3 Binds to Active Site 1)”, the “ELISA performance in urine and serum” value with intact ZIKV particles [2] was “best performance among the three clamp peptides”. The “signal decrease DENV vs ZIKV” value in data set [3] (all DENV serotypes, 10^5 copies/mL coating) is listed as “around 70%”. Besides, in the data set with intact ZIKV particles [1], the LOD is 3.7 log[ZIKV], copies/mL; the FPLR maximum is 0.95 ΔA; the FPLR minimum is on record as 0.01 ΔA; the Long-term stability was greater than 1 Month. In the data set on intact ZIKV particles [1], the “FPLR C50” value was 5.8 log[ZIKV], copies/mL; the FPLR slope is reported as 5.3; the “dynamic range of dose-response curve” value is reported as “three-order of magnitude”; the “FPLR Dynamic Range” value is 4-7 log[ZIKV], copies/mL.
On to “C4: clamp peptide WPWIGT (18) - bridge GPGCCGPG (32) - KTDAYS (27) (WPWIGTGPGCCGPGKTDAYS; C3 Binds to Active Site 2; Bridge peptide; C4 Binds to Active Site 1)”, for which, in the data set with intact ZIKV particles [1], the LOD was 5.7 log[ZIKV], copies/mL; the FPLR maximum was 0.40 ΔA; the FPLR minimum is 0.02 ΔA; the Long-term stability was greater than 1 Month. Moreover, in the data set on intact ZIKV particles [1], the “FPLR C50” value was 6.3 log[ZIKV], copies/mL; the FPLR slope came to 32.8; the “FPLR Dynamic Range” value is 6-7 log[ZIKV], copies/mL.
For “C-KRNATP (CKRNATP; X1) [mono-arm hexapeptide with N-terminal cysteine]”, in the data set with intact ZIKV particles [1], the LOD was 4.8 log[ZIKV], copies/mL; the FPLR maximum is 0.98 ΔA; the FPLR minimum was 0.03 ΔA; the Long-term stability is greater than 1 Month. Further, in the data set on intact ZIKV particles [1], the “FPLR C50” value was 6.1 log[ZIKV], copies/mL; the FPLR slope is 20.8; the “FPLR Dynamic Range” value is 5-7 log[ZIKV], copies/mL.
Regarding “C2: clamp peptide WPHTQ (16) - bridge GPGCCGPG (32) - LRGHA (25) (WPHTQGPGCCGPGLRGHA; C1 Binds to Active Site 2; Bridge peptide; C2 Binds to Active Site 1)”, in the data set with intact ZIKV particles [1], the LOD is 4.5 log[ZIKV], copies/mL; the FPLR maximum is on record as 0.55 ΔA; the FPLR minimum is 0.05 ΔA; the Long-term stability was greater than 1 Month. Moreover, in the data set with intact ZIKV particles [1], the “FPLR C50” value is 6.2 log[ZIKV], copies/mL; the FPLR slope is 25.4; the “FPLR Dynamic Range” value is 5-7 log[ZIKV], copies/mL.
Turning to “C5: clamp peptide AGRRP (20) - bridge GPGCCGPG (32) - SWPGQ (24) (AGRRPGPGCCGPGSWPGQ; C5 Binds to Active Site 2; Bridge peptide; C1 Binds to Active Site 1)”, in the data set on intact ZIKV particles [1], the LOD is 5.8 log[ZIKV], copies/mL; the FPLR maximum was 0.17 ΔA; the FPLR minimum was 0.01 ΔA; the Long-term stability is greater than 1 Month. Also, in the data set with intact ZIKV particles [1], the “FPLR C50” value is 6.4 log[ZIKV], copies/mL; the FPLR slope is listed as 25.6; the “FPLR Dynamic Range” value is 6-7 log[ZIKV], copies/mL.
Consider “C-LRGHA (CLRGHA; P2) [mono-arm pentapeptide with N-terminal cysteine]”, for which, in the data set with intact ZIKV particles [1], the LOD is 4.5 log[ZIKV], copies/mL; the FPLR maximum is 0.94 ΔA; the FPLR minimum was 0.04 ΔA; the Long-term stability was greater than 1 Month. In the data set with intact ZIKV particles [1], the “FPLR C50” value was 6.2 log[ZIKV], copies/mL; the FPLR slope stood at 19.9; the “FPLR Dynamic Range” value was 5-7 log[ZIKV], copies/mL.
Take “C8: clamp peptide MDSPIK (22) - bridge GPGCCGPG (32) - KTDAYS (27) (MDSPIKGPGCCGPGKTDAYS; C7 Binds to Active Site 2; Bridge peptide; C4 Binds to Active Site 1)”: in the data set with intact ZIKV particles [1], the LOD is 4.7 log[ZIKV], copies/mL; the FPLR maximum is recorded as 0.82 ΔA; the FPLR minimum was 0.03 ΔA; the Long-term stability is on record as greater than 1 Month. For the same substance, in the data set on intact ZIKV particles [1], the “FPLR C50” value is 6.2 log[ZIKV], copies/mL; the FPLR slope is 33.9; the “FPLR Dynamic Range” value is 5-7 log[ZIKV], copies/mL.

These data come from patent US11830582B2, “Methods of designing novel antibody mimetics for use in detecting antigens and as therapeutic agents” (UNIVERSITY OF MIAMI, priority 2018, dated 2023).
